Structures can show the parent of a compound that is named as a salt.
Experiments:
Format in all cases: cell-based
[1] = biological target: T1, hTLR7 (Homo sapiens, UniProt Q9NYK1); experiment: TLR7/TLR8 reporter assay, HEK-Blue hTLR7 reporter cells; settings: 17 hours, optical density at 640 nm
T1 construct: host or cells: HEK-Blue hTLR7 (HEK293-derived reporter cell line)
T1 sequence (Q9NYK1 27-1049): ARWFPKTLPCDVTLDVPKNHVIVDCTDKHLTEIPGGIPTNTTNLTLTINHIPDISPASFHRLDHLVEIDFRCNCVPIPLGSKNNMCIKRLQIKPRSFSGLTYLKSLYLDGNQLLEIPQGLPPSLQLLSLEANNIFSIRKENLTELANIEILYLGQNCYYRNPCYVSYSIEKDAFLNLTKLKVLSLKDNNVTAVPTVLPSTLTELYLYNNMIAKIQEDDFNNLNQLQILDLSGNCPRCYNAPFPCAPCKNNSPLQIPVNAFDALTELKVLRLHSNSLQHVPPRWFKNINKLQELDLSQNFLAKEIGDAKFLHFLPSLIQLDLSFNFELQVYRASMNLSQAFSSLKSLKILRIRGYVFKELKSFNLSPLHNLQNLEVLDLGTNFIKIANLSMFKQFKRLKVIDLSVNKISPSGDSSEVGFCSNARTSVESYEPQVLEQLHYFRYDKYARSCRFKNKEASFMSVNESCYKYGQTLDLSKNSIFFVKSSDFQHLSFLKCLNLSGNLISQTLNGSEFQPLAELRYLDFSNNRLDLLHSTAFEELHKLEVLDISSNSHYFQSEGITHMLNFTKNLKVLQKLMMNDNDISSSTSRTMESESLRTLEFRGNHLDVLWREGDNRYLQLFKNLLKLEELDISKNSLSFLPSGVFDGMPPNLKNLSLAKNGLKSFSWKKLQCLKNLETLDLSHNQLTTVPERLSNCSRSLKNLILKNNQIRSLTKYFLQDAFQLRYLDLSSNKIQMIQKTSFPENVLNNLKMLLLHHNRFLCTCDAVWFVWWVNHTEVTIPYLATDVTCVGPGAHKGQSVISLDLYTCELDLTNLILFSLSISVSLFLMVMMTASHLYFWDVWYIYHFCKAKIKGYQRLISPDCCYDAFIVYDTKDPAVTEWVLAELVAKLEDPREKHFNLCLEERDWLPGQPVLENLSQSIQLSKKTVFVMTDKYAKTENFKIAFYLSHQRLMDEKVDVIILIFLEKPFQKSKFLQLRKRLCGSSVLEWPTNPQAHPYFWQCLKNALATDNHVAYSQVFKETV
Protocol: (§1) Reporter cells lines (namely HEK-Blue Null1, HEK-Blue hTLR7 and HEK-Blue hTLR8) are obtained from InvivoGen. Cells are passed/expanded/stored in liquid nitrogen per supplier's instruction. The cells are typically split twice per week in the growth media of DMEM supplemented with 10% fetal bovine serum, 1× NEAA, 1 mM Pyruvate, 2 mM glutamine, 50 μg/mL penicillin, 50 U/mL streptomycin (each from Gibco) in the presence of the following antibiotics, as shown in Table 3:
(§2) Test samples (at desired concentrations diluted in DMEM) are added to the 96-well assay plate, 20 μL per well. Reporter cells are harvested from the tissue culture flasks by incubation in PBS at 37° C. for two minutes after the media in the flask is removed and cells rinsed with PBS. Cells are counted and diluted in the HEK-Blue Detection media at 0.22×10^6 cells/mL. Then 180 μL of cells are added to the assay plate containing the 20 μL of test samples, and incubated for 17 hours at 37° C. in a 5% CO2 humidified incubator. Optical density at 640 nm is analyzed using an Envision (Perkin Elmer) plate reader.

[2] = biological target: T2, hTLR8 (Homo sapiens, UniProt Q9NR97); experiment: TLR7/TLR8 reporter assay, HEK-Blue hTLR8 reporter cells; settings: 17 hours, optical density at 640 nm
T2 construct: host or cells: HEK-Blue hTLR8 (HEK293-derived reporter cell line)
T2 sequence (Q9NR97 27-1041): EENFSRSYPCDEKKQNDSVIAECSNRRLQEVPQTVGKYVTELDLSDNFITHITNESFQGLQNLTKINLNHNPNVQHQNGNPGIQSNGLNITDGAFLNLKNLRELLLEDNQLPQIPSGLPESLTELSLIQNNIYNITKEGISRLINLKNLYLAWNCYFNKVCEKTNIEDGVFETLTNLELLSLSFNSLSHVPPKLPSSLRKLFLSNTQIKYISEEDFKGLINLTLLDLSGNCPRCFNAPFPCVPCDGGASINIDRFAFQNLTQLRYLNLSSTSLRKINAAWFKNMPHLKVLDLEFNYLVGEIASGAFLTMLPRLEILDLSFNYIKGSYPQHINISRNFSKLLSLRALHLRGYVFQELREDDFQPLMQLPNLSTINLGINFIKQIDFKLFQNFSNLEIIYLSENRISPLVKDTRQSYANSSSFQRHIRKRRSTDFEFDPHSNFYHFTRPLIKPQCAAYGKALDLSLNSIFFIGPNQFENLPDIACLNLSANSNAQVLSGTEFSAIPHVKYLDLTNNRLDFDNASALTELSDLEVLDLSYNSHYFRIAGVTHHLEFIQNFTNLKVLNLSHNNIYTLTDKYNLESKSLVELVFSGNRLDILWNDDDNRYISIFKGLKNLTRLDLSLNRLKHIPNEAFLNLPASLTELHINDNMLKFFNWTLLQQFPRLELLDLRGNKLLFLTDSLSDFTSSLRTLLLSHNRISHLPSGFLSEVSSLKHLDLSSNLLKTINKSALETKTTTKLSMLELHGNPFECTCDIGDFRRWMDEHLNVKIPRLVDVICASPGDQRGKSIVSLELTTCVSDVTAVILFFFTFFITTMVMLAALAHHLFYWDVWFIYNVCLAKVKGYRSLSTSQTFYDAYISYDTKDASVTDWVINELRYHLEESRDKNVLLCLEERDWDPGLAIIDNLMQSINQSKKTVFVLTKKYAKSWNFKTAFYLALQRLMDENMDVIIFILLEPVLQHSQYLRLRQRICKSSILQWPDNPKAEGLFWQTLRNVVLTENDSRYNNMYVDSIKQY
Protocol: as §1, §2

[3] = system: Human peripheral blood mononuclear cells (PBMC); experiment: PBMC screening assay, TNF-α in supernatant; settings: TNF-α in supernatant of human PBMC, 24 hours, ELISA or HTRF
Protocol: Human peripheral blood mononuclear cells (PBMC) were obtained from BenTek, frozen at 25×10^6 cell/mL in 10% DMSO (Sigma) prepared in fetal bovine serum (Gibco) and stored in liquid nitrogen. For culture PBMC were thawed quickly in a 37° C. water bath and diluted into pre-warmed RPMI 1640 (Lonza) supplemented with 10% fetal bovine serum, 2 mM glutamine, 50 μg/mL penicillin, 50 U/mL streptomycin (all from Gibco) and centrifuged for 5 minutes at 500×g. PBMC were suspended into the growth media described above and cultured at a concentration of 1×10^6 cells per mL at 37° C. in a 5% CO2 incubator.
PBMC were thawed, suspended at a concentration of 1×10^6 cell/mL in growth media and 200 μL was aliquoted into each well of a 96-well plate for a total of 0.2×10^6 cells per well. PBMC were incubated for 16-18 hours at 37° C. in a 5% CO2 humidified incubator. The following day PBMC plates were centrifuged at 500×g for 5 minutes and the growth media was removed. 150 μL of twelve concentrations ranging from 1000 to 0.000238 nM of small molecules prepared in growth media were added to PBMC in duplicate and incubated for 24 hours at 37° C. in a 5% CO2 incubator. Prior to supernatant harvest, cells were spun at 500×g for 5 minutes to remove cell debris. TNF-α activity was assessed in the supernatant by ELISA (eBioscience) or HTRF (CisBio) per the manufacturer's instructions. Optical density at 450 nm and 570 nm (ELISA) or luminescence (HTRF) was analyzed using an Envision (Perkin Elmer) plate reader, as shown in Table 5.

Row | EC50 [1] | EC50 [2] | SMILES | EC50 [3]
1 | > 1 µM | < 0.5 µM | CCCN(CCC)C(=O)C1=Cc2ccc(C(=O)Nc3cncc(CNC(=O)[C@@H]4CCCN4C(=O)OCc4ccccc4)c3)cc2N=C(N)C1 [Compound 1.17, benzyl (S)-2-(((5-(2-amino-4-(dipropyl-carbamoyl)-3H-benzo[b]azepine-8-carboxamido)pyridin-3-yl)methyl)carbamoyl)pyrrolidine-1-carboxylate] | –
2 | > 1 µM | 0.5 to 1 µM | CCCN(CCC)C(=O)C1=Cc2ccc(C(=O)Nc3cncc(CNC(=O)[C@H](Cc4ccccc4)NC(=O)OCc4ccccc4)c3)cc2N=C(N)C1 [Compound 1.16, benzyl (S)-(1-(((5-(2-amino-4-(dipropyl-carbamoyl)-3H-benzo[b]azepine-8-carboxamido)pyridin-3-yl)methyl)amino)-1-oxo-3-phenylpropan-2-yl)carbamate] | –
3 | > 1 µM | < 0.5 µM | CCCN(CCC)C(=O)C1=Cc2ccc(C(=O)Nc3cncc(CNC(=O)[C@@H](NC(=O)OCc4ccccc4)C(C)C)c3)cc2N=C(N)C1 [Compound 1.15, benzyl (S)-(1-(((5-(2-amino-4-(dipropyl-carbamoyl)-3H-benzo[b]azepine-8-carboxamido)pyridin-3-yl)methyl)amino)-3-methyl-1-oxobutan-2-yl)carbamate] | –
4 | – | – | CCCN(CCC)C(=O)C1=Cc2ccc(C(=O)Nc3cncc(CNC(=O)C4Cc5ccccc5CN4)c3)cc2N=C(N)C1 (centres unmarked) [Compound 1.34, 2-amino-N^4,N^4-dipropyl-N^8-(5-((1,2,3,4-tetrahyroisoquinoline-3-carboxamido)-methyl)pyridin-3-yl)-3H-benzo[b]azepine-4,8-dicarboxamide] | < 0.5 µM
5 | – | – | CCCN(CCC)C(=O)C1=Cc2ccc(C(=O)Nc3cncc(CNC(=O)Oc4ccccc4)c3)cc2N=C(N)C1 [Compound 1.37, Phenyl ((5-(2-amino-4-(dipropylcarbamoyl)-3H-benzo[b]azepine-8-carboxamido)pyridin-3-yl)methyl)carbamate] | < 0.5 µM
6 | – | – | CCCN(CCC)C(=O)C1=Cc2ccc(C(=O)Nc3cccc(C(=O)NCCNC(=O)OCc4ccccc4)c3)cc2N=C(N)C1 [Compound 1.27, benzyl (2-(3-(2-amino-4-(dipropylcarbamoyl)-3H-benzo[b]azepine-8-carboxamido)benzamido)ethyl)carbamate] | < 0.5 µM
7 | – | – | CCCN(CCC)C(=O)C1=Cc2ccc(C(=O)Nc3ccc4c(c3)CNCC4)cc2N=C(N)C1 [Compound 1.14, 2-amino-N^4,N^4-dipropyl-N^8-(1,2,3,4-tetrahydro-isoquinolin-7-yl)-3H-benzo[b]azepine-4,8-dicarboxamide trifluoroacetate salt] | < 0.5 µM
8 | – | – | CCCN(CCC)C(=O)C1=Cc2ccc(C(=O)Nc3cncc(CNC(=O)[C@@H](N)Cc4ccccc4)c3)cc2N=C(N)C1 [Compound 1.35, (S)-2-amino-N^8-(5-((2-amino-3-phenylpropanamido)methyl)pyridin-3-yl)-N^4,N^4-dipropyl-3H-benzo[b]azepine-4,8-dicarboxamide] | < 0.5 µM
9 | – | – | CCCN(CCC)C(=O)C1=Cc2ccc(C(=O)Nc3ccc4c(c3)CCNC4)cc2N=C(N)C1 [Compound 1.13, 2-amino-N^4,N^4-dipropyl-N^8-(1,2,3,4-tetrahydroisoquinolin-6-yl)-3H-benzo[b]azepine-4,8-dicarboxamide trifluoroacetate salt] | < 0.5 µM
10 | > 1 µM | > 1 µM | CCCN(CCC)C(=O)C1=Cc2ccc(C(=O)Nc3cccc([C@H]4CN(Cc5ccccc5)C[C@@H]4C(=O)OC)c3)cc2N=C(N)C1 [Compound 1.18, methyl (3R,4S)-4-(3-(2-amino-4-(dipropylcarbamoyl)-3H-benzo[b]azepine-8-carboxamido)phenyl)-1-benzylpyrrolidine-3-carboxylate trifluoroacetate salt] | –
11 | – | – | CCCN(CCC)C(=O)C1=Cc2ccc(C(=O)Nc3ccc4c(c3)NCCC4)cc2N=C(N)C1 [Compound 1.1, 2-amino-N^4,N^4-dipropyl-N^8-(1,2,3,4-tetrahydroquinolin-7-yl)-3H-benzo[b]azepine-4,8-dicarboxamide] | < 0.5 µM
12 | – | – | CCCN(CCC)C(=O)C1=Cc2ccc(C(=O)NCc3cccnc3)cc2N=C(N)C1 [Compound 1.3, 2-amino-N^4,N^4-dipropyl-N^8-(pyridin-3-ylmethyl)-3H-benzo[b]azepine-4,8-dicarboxamide HCl salt] | < 0.5 µM
13 | – | – | CCCN(CCC)C(=O)C1=Cc2ccc(C(=O)Nc3cccc(CNC(=O)CCc4ccccc4)c3)cc2N=C(N)C1 [Compound 1.31, 2-amino-N^8-(3-((3-phenylpropanamido)methyl)phenyl)-N^4,N^4-dipropyl-3H-benzo[b]azepine-4,8-dicarboxamide bis TFA salt] | < 0.5 µM
